Test results: patent US8853203B2, “Diazepinone derivatives” (Novartis AG, priority 2012, dated 2014)

How the values were obtained:
[1] = molecular target: human mGluR5a receptors (Homo sapiens (Human), UniProt P41594); test: inhibition of glutamate-induced elevation of intracellular calcium in L(tk-) cells expressing human mGluR5a; assay type: cell-based; conditions: for IC50: glutamate-induced intracellular calcium elevation, L(tk-) cells expressing human mGluR5a, read-out: mGluR5 IC50; for inhibition at 10 µM: LTK, read-out: mGluR5 % inhibition at 10 μM
Chain of human mGluR5a receptors (P41594 other isoform, or with tags, fused parts or gaps): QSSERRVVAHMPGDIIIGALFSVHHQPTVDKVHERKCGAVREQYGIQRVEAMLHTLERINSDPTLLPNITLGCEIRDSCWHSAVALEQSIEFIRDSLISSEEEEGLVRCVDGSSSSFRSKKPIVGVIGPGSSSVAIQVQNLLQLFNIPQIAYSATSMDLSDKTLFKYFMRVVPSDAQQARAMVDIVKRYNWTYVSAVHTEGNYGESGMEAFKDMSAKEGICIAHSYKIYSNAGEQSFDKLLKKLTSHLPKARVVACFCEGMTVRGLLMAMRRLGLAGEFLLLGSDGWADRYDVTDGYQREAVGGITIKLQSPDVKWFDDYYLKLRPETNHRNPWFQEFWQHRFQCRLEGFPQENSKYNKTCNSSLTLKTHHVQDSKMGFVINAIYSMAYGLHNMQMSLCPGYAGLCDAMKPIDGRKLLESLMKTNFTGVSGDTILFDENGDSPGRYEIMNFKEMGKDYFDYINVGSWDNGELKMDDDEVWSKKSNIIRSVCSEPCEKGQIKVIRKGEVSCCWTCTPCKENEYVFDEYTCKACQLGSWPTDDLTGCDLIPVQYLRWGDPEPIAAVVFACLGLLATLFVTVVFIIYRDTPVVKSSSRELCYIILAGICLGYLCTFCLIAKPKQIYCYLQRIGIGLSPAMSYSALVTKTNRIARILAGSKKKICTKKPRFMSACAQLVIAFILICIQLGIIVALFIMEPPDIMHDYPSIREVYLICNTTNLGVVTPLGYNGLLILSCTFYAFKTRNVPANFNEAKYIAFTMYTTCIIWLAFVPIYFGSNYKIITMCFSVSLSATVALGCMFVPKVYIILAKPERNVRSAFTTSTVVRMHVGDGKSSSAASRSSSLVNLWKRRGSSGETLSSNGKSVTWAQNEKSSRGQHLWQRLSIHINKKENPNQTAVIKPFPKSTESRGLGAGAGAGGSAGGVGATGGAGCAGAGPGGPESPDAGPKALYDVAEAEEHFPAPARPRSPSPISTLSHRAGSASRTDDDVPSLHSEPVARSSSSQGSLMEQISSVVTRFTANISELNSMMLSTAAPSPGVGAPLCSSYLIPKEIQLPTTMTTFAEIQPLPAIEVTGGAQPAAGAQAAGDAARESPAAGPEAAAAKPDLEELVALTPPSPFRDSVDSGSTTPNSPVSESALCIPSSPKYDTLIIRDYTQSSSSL
Text: Activity of compounds of the present invention was examined by determination to what extent the glutamate-induced elevation of the intracellular calcium concentration in L(tk-) cells expressing human mGluR5a receptors (see L. P. Daggett et al., Neuropharm. Vol. 34, pages 871-886, 1995) is inhibited by utilizing methods as described e.g. by L. P. Daggett et al., Neuropharm. Vol. 34, pages 871-886 (1995) and P. J. Flor et al., J. Neurochem. Vol. 67, pages 58-63 (1996).

[2] = molecular target: human mGluR1 (Homo sapiens (Human), UniProt Q13255); test: mGluR1 antagonism, L-glutamate induced intracellular calcium increase (FLIPR) in CHO cells stably expressing human mGluR1; assay type: cell-based; conditions: for IC50: L-glutamate induced intracellular calcium, CHO cells expressing human mGluR1, FLIPR; for inhibition at 10 µM: CHO
Chain of human mGluR1 (Q13255 19-1194): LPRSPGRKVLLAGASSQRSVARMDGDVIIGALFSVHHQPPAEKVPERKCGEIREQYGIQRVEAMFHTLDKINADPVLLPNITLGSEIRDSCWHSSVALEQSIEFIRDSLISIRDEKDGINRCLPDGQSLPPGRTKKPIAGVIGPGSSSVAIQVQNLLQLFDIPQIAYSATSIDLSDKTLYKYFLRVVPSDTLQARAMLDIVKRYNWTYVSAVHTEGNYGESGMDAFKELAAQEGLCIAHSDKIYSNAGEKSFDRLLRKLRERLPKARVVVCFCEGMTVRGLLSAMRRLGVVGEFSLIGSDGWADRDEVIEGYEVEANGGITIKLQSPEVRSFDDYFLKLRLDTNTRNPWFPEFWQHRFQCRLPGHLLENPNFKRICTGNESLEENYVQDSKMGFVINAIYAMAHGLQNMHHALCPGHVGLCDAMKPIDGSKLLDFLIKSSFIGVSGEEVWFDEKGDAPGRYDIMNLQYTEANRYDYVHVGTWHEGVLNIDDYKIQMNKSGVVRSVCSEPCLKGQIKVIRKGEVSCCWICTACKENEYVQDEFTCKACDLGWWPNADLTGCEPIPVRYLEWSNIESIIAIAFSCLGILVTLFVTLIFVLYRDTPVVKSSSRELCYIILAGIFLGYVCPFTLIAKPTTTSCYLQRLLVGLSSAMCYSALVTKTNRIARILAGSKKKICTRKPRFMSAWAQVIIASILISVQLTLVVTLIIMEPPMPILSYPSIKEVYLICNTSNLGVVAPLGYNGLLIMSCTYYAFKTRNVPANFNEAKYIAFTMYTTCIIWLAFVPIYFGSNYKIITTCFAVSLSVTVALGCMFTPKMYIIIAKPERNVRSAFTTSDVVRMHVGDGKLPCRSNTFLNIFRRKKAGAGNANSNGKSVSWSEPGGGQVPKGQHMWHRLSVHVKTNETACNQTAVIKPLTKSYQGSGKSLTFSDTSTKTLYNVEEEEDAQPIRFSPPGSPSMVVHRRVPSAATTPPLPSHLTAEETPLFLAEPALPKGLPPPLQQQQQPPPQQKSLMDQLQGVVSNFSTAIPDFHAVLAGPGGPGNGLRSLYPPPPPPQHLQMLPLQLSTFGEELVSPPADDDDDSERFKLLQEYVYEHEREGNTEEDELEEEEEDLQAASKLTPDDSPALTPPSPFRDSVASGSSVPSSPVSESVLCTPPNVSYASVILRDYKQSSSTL
Text: Activity of compounds of the present invention with respect to mGluR1 antagonism was examined by an assay based on measurements of L-glutamate induced intracellular calcium increases using a 96 well plate-based Fluorometric Imaging Plate Reader (FLIPR), and CHO cells stably expressing human mGluR1. L-glutamate induced robust calcium responses via human mGluR1 in a concentration-dependent manner and in the low micromolar range. The table below represents IC50 values of the inhibition of the glutamate-induced elevation of the intracellular calcium concentration.

SMILES | IC50 [1] | IC50 [2] | inhibition at 10 µM [2] | inhibition at 10 µM [1]
Cn1ccc(C2=NCC(=O)N3CCc4c(I)cccc4C3=C2)n1 [Example 31, 9-iodo-2-(1-methyl-1H-pyrazol-3-yl)-7,8-dihydro-[1,4]diazepino[7,1-a]isoquinolin-5(4H)-one] | 167 nM | 1300 nM | – | –
COc1cc(C2=NCC(=O)N3CCc4c(I)cccc4C3=C2)ccn1 [Example 33, 9-iodo-2-(2-methoxypyridin-4-yl)-7,8-dihydro-[1,4]diazepino[7,1-a]isoquinolin-5(4H)-one] | 13 nM | 1400 nM | – | –
O=C1CN=C(c2ccoc2)C=C2c3cccc(I)c3CCN12 [Example 34, 2-(furan-3-yl)-9-iodo-7,8-dihydro-[1,4]diazepino[7,1-a]isoquinolin-5(4H)-one] | 41 nM | 93 nM | – | –
CC(C)n1cc(C2=NCC(=O)N3CCc4c(I)cccc4C3=C2)cn1 [Example 35, 9-iodo-2-(1-isopropyl-1H-pyrazol-4-yl)-7,8-dihydro-[1,4]diazepino[7,1-a]isoquinolin-5(4H)-one] | 14 nM | 15 nM | – | –
Cn1cnc(C2=NCC(=O)N3CCc4c(I)cccc4C3=C2)c1 [Example 36, 9-iodo-2-(1-methyl-1H-imidazol-4-yl)-7,8-dihydro-[1,4]diazepino[7,1-a]isoquinolin-5(4H)-one] | 3800 nM | 6900 nM | – | –
COc1cccc2c1CCN1C(=O)CN=C(c3cnc4c(c3)OCCN4C)C=C21 [Example 36a, 9-methoxy-2-(4-methyl-3,4-dihydro-2H-pyrido[3,2-b][1,4]oxazin-7-yl)-7,8-dihydro-[1,4]diazepino[7,1-a]isoquinolin-5(4H)-one] | 5500 nM | – | 1% | –
CCc1cccc2c1CCN1C(=O)CN=C(c3cccc(OC)c3)C=C21 [Example 37, 9-ethyl-2-(3-methoxyphenyl)-7,8-dihydro-[1,4]diazepino[7,1-a]isoquinolin-5(4H)-one] | 77 nM | 2200 nM | – | –
C#Cc1cccc2c1CCN1C(=O)CN=C(c3cccs3)C=C21 [Example 38, 9-ethynyl-2-(thiophen-2-yl)-7,8-dihydro-[1,4]diazepino[7,1-a]isoquinolin-5(4H)-one] | 50 nM | 22 nM | – | –
N#Cc1cccc2c1CCN1C(=O)CN=C(c3cccs3)C=C21 [Example 39, 5-oxo-2-(thiophen-2-yl)-4,5,7,8-tetrahydro-[1,4]diazepino[7,1-a]isoquinoline-9-carbonitrile] | 610 nM | 1600 nM | – | –
Cn1ccc(C2=NCC(=O)N3CCc4c(C#N)cccc4C3=C2)n1 [Example 40, 2-(1-methyl-1H-pyrazol-3-yl)-5-oxo-4,5,7,8-tetrahydro-[1,4]diazepino[7,1-a]isoquinoline-9-carbonitrile] | 5200 nM | > 10000 nM | – | –
COc1cccc(C2=NCC(=O)N3CCc4c(cccc4N4CCOCC4)C3=C2)c1 [Example 41, 2-(3-methoxyphenyl)-9-morpholino-7,8-dihydro-[1,4]diazepino[7,1-a]isoquinolin-5(4H)-one] | 32 nM | > 10000 nM | – | –
CC(C)n1cc(C2=NCC(=O)N3CCc4c(cccc4-n4cccn4)C3=C2)cn1 [Example 42, 2-(1-isopropyl-1H-pyrazol-4-yl)-9-(1H-pyrazol-1-yl)-7,8-dihydro-[1,4]diazepino[7,1-a]isoquinolin-5(4H)-one] | 32 nM | 3400 nM | – | –
COc1cccc(C2=NCC(=O)N3CCc4c(CN(C)C)cccc4C3=C2)c1 [Example 43, 9-((dimethylamino)methyl)-2-(3-methoxyphenyl)-7,8-dihydro-[1,4]diazepino[7,1-a]isoquinolin-5(4H)-one] | 685 nM | > 10000 nM | – | –
COCCOCc1cccc2c1CCN1C(=O)CN=C(c3cccc(OC)c3)C=C21 [Example 44, 9-((2-methoxyethoxy)methyl)-2-(3-methoxyphenyl)-7,8-dihydro-[1,4]diazepino[7,1-a]isoquinolin-5(4H)-one] | 1600 nM | > 10000 nM | – | –
Cn1ccc(C2=NCC(=O)N3CCc4c(CO)cccc4C3=C2)n1 [Example 45, 9-(hydroxymethyl)-2-(1-methyl-1H-pyrazol-3-yl)-7,8-dihydro-[1,4]diazepino[7,1-a]isoquinolin-5(4H)-one] | 700 nM | > 10000 nM | – | –
Cn1cc(C2=NCC(=O)N3CCc4c(CO)cccc4C3=C2)cn1 [Example 46, 9-(hydroxymethyl)-2-(1-methyl-1H-pyrazol-4-yl)-7,8-dihydro-[1,4]diazepino[7,1-a]isoquinolin-5(4H)-one] | 270 nM | 2200 nM | – | –

SMILES | IC50 [1] | IC50 [2] | inhibition at 10 µM [2] | inhibition at 10 µM [1]
COC(C)c1cccc2c1CCN1C(=O)CN=C(c3ccn(C)n3)C=C21 (stereo not shown) [Example 47, 9-(1-methoxyethyl)-2-(1-methyl-1H-pyrazol-3-yl)-7,8-dihydro-[1,4]diazepino[7,1-a]isoquinolin-5(4H)-one] | 71 nM | 3400 nM | – | –
COc1cccc(C2=NCC(=O)N3CCc4c(C(C)=O)cccc4C3=C2)c1 [Example 48, 9-acetyl-2-(3-methoxyphenyl)-7,8-dihydro-[1,4]diazepino[7,1-a]isoquinolin-5(4H)-one] | 35 nM | 2300 nM | – | –
COc1cccc(C2=NCC(=O)N3CCc4c(cccc4-c4ccccc4)C3=C2)c1 [Example 49, 2-(3-methoxyphenyl)-9-phenyl-7,8-dihydro-[1,4]diazepino[7,1-a]isoquinolin-5(4H)-one] | 1300 nM | > 10000 nM | – | –
COc1cc(C2=NCC(=O)N3CCc4c(cccc4-c4ccccn4)C3=C2)ccn1 [Example 50, 2-(2-methoxypyridin-4-yl)-9-(pyridin-2-yl)-7,8-dihydro-[1,4]diazepino[7,1-a]isoquinolin-5(4H)-one] | 46 nM | > 10000 nM | – | –
O=C1CN=C(c2ccoc2)C=C2c3cccc(-c4ccncc4)c3CCN12 [Example 51, 2-(furan-3-yl)-9-(pyridin-4-yl)-7,8-dihydro-[1,4]diazepino[7,1-a]isoquinolin-5(4H)-one] | 35 nM | > 10000 nM | – | –
COc1cc(C2=NCC(=O)N3CCc4c(cccc4-c4cnccn4)C3=C2)ccn1 [Example 52, 2-(2-methoxypyridin-4-yl)-9-(pyrazin-2-yl)-7,8-dihydro-[1,4]diazepino[7,1-a]isoquinolin-5(4H)-one] | 66 nM | > 10000 nM | – | –
COc1cc(C2=NCC(=O)N3CCc4c(cccc4-c4ccc(F)nc4)C3=C2)ccn1 [Example 53, 9-(6-fluoropyridin-3-yl)-2-(2-methoxypyridin-4-yl)-7,8-dihydro-[1,4]diazepino[7,1-a]isoquinolin-5(4H)-one] | 7 nM | > 10000 nM | – | –
COc1cc(C2=NCC(=O)N3CCc4c(cccc4-c4ccncc4F)C3=C2)ccn1 [Example 54, 9-(3-fluoropyridin-4-yl)-2-(2-methoxypyridin-4-yl)-7,8-dihydro-[1,4]diazepino[7,1-a]isoquinolin-5(4H)-one] | 11 nM | > 10000 nM | – | –
Cn1cnc(C2=NCC(=O)N3CCc4c(cccc4-c4ccncc4)C3=C2)c1 [Example 55, 2-(1-methyl-1H-imidazol-4-yl)-9-(pyridin-4-yl)-7,8-dihydro-[1,4]diazepino[7,1-a]isoquinolin-5(4H)-one] | 4900 nM | > 10000 nM | – | –
Cc1cc(-c2cccc3c2CCN2C(=O)CN=C(c4ccn(C)n4)C=C32)ccn1 [Example 56, 2-(1-methyl-1H-pyrazol-3-yl)-9-(2-methylpyridin-4-yl)-7,8-dihydro-[1,4]diazepino[7,1-a]isoquinolin-5(4H)-one] | – | – | 0% | 24%
COc1cccc(C2=NCC(=O)N3CCc4c(cccc4C4CCCO4)C3=C2)c1 (stereo not shown) [Example 57, 2-(3-methoxyphenyl)-9-(tetrahydrofuran-2-yl)-7,8-dihydro-[1,4]diazepino[7,1-a]isoquinolin-5(4H)-one] | 14 nM | 4500 nM | – | –
COc1cccc2c1CCN1C(=O)CN=C(c3cccc(O)n3)C=C21 [Example 58, 9-methoxy-2-(6-oxo-1,6-dihydropyridin-2-yl)-7,8-dihydro-[1,4]diazepino[7,1-a]isoquinolin-5(4H)-one] | – | 8900 nM | – | 26%
COc1cccc(C2=NCC(=O)N3CCc4c(ccc(OC)c4OC)C3=C2)c1 [Example 59, 9,10-dimethoxy-2-(3-methoxyphenyl)-7,8-dihydro-[1,4]diazepino[7,1-a]isoquinolin-5(4H)-one] | – | 6500 nM | – | 23%
COc1cccc2c1CCN1C(=O)CN=C(c3cc[nH]c(=O)c3)C=C21 [Example 60, 9-methoxy-2-(2-oxo-1,2-dihydropyridin-4-yl)-7,8-dihydro-[1,4]diazepino[7,1-a]isoquinolin-5(4H)-one] | – | – | 15% | 27%
COc1cccc2c1CCN1C(=O)CN=C(n3cnc(C(C)C)c3)C=C21 [Example 61, 2-(4-isopropyl-1H-imidazol-1-yl)-9-methoxy-7,8-dihydro-[1,4]diazepino[7,1-a]isoquinolin-5(4H)-one] | 345 nM | 3100 nM | – | –
Cc1cn(C2=NCC(=O)N3CCc4c(Cl)cccc4C3=C2)cn1 [Example 62, 9-chloro-2-(4-methyl-1H-imidazol-1-yl)-7,8-dihydro-[1,4]diazepino[7,1-a]isoquinolin-5(4H)-one] | 595 nM | 1600 nM | – | –
